Laboratory results published in patent publication US9777017B2, “Tricyclic fused thiophene derivatives as JAK inhibitors” (Incyte Corporation, priority 2012, dated 2017).
Where a name gives a salt, the structure may show the parent alone.

Experiments:
Type in all cases: biochemical
human JAK1 [1] = test: In vitro JAK kinase assay (HTRF, phosphorylation of a biotinylated peptide), JAK1; set-up: key to JAK1 IC50 (nM): +indicates an IC50 of ≦100 nM; ++indicates an IC50 of ≦1000 nM; +++indicates an IC50 of ≦2000 nM; ++++indicates an IC50 of >2000 nM; +++++indicates that the IC50 was greater than the highest concentration tested; conditions: ratio of IC50s, 1 mM ATP
Experimental: (§1) Compounds herein were tested for inhibitory activity of JAK targets according to the following in vitro assay described in Park et al., Analytical Biochemistry 1999, 269, 94-104. The catalytic domains of human JAK1 (a.a. 837-1142), JAK2 (a.a. 828-1132) and JAK3 (a.a. 781-1124) were expressed using baculovirus in insect cells and purified. The catalytic activity of JAK1, JAK2 or JAK3 was assayed by measuring the phosphorylation of a biotinylated peptide. The phosphorylated peptide was detected by homogenous time resolved fluorescence (HTRF). IC50s of compounds were measured for each kinase in the 40 μL reactions that contain the enzyme, ATP and 500 nM peptide in 50 mM Tris (pH 7.8) buffer with 100 mM NaCl, 5 mM DTT, and 0.1 mg/mL (0.01%) BSA. For the 1 mM IC50 measurements, ATP concentration in the reactions was 1 mM. Reactions were carried out at room temperature for 1 hour and then stopped with 20 μL 45 mM EDTA, 300 nM SA-APC, 6 nM Eu-Py20 in assay buffer (Perkin Elmer, Boston, Mass.). Binding to the Europium labeled antibody took place for 40 minutes and HTRF signal was measured on a PHERA star plate reader (BMG, Cary, N.C.). The Example compounds were each tested in the Example A assay (see Table 1 for data for the compounds of the examples as tested by the assay of Example A at 1 mM ATP).

human JAK1 [2] = target: human JAK1 (Homo sapiens, UniProt P23458); test: as above; set-up: key to JAK1 IC50 (nM): +indicates an IC50 of ≦100 nM; ++indicates an IC50 of ≦1000 nM; +++indicates an IC50 of ≦2000 nM; ++++indicates an IC50 of >2000 nM; +++++indicates that the IC50 was greater than the highest concentration tested; conditions: 1 mM ATP
Experimental: as §1

human JAK2 = human JAK2 (Homo sapiens (Human), UniProt O60674); test: In vitro JAK kinase assay (HTRF, phosphorylation of a biotinylated peptide), JAK2; set-up: key to JAK2 IC50 (nM): +indicates an IC50 of ≦100 nM; ++indicates an IC50 of ≦1000 nM; +++indicates an IC50 of ≦2000 nM; ++++indicates an IC50 of >2000 nM; +++++indicates that the IC50 was greater than the highest concentration tested; conditions: 1 mM ATP
Experimental: as §1

Chain of human JAK2 (O60674 828-1132): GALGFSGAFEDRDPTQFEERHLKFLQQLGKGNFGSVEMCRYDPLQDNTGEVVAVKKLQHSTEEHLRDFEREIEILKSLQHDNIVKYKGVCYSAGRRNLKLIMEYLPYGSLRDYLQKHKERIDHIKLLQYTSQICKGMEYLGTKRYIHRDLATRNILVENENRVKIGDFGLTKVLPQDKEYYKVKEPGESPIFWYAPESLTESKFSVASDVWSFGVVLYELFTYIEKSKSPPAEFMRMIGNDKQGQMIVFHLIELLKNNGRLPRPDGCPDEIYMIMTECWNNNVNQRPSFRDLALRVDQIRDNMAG

Molecule	JAK2/JAK1 (human JAK1 [1])	IC50 (human JAK1 [2]) [nM]	IC50 (human JAK2) [nM]	JAK2 IC50 (nM) (human JAK2)	JAK1 IC50 (nM) (human JAK1 [2])
Cc1nc2cnc3ccsc3c2n1[C@@H]1CC[C@@H](CC#N)[C@@H](O)C1 (mixture of isomers) [Example 34, Mixture of [(1R,2R,4S)-2-hydroxy-4-(2-methyl-1H-imidazo[4,5-d]thieno[3,2-b]pyridin-1-yl)cyclohexyl]acetonitrile trifluoroacetate and [(1S,2S,4R)-2-hydroxy-4-(2-methyl-1H-imidazo[4,5-d]thieno[3,2-b]pyridin-1-yl)cyclohexyl]acetonitrile trifluoroacetate]	>10				
CCc1nc2cnc3ccsc3c2n1[C@H]1CC[C@H](CC#N)[C@H](O)C1 (racemic) [Example 35]		≤ 100	> 2000		
C[C@@H](O)c1nc2cnc3ccsc3c2n1C1CCNCC1F (single isomer, unassigned) [9 (2nd peak)]	>10			+++++	
C[C@@H](O)c1nc2cnc3ccsc3c2n1C1CCNCC1F (stereo partly drawn) [9 (1st peak), (1R)-1-[1-(3-Fluoropiperidin-4-yl)-1H-imidazo[4,5-d]thieno[3,2-b]pyridin-2-yl]ethanol]				+++++	+++++
C[C@@H](O)c1nc2cnc3ccsc3c2n1[C@H]1CCCN(C(=O)CCC(F)(F)F)C1 [Example 52, (1R)-1-{1-[(3S)-1-(4,4,4-Trifluorobutanoyl)piperidin-3-yl]-1H-imidazo[4,5-d]thieno[3,2-b]pyridin-2-yl}ethanol]	>10	≤ 1000			
Cc1nn2cnc3ccsc3c2c1[C@H]1CC[C@H](CC#N)CC1 [Example 77, [trans-4-(8-Methylpyrazolo[1,5-c]thieno[2,3-e]pyrimidin-9-yl)cyclohexyl]acetonitrile]		≤ 100	≤ 100		
[(1R,2S,4S)-4-(2-Ethyl-1H-imidazo[4,5-d]thieno[3,2-b]pyridin-1-yl)-2-hydroxycyclohexyl]acetonitrile and [(1S,2R,4R)-4-(2-ethyl-1H-imidazo[4,5-d]thieno[3,2-b]pyridin-1-yl)-2-hydroxycyclohexyl]acetonitrile [40 (second peak)]		> 2000		+++++	
[(1R,2S,4S)-4-(2-Methyl-1H-imidazo[4,5-d]thieno[3,2-b]pyridin-1-yl)-2-hydroxycyclohexyl]acetonitrile and [(1S,2R,4R)-4-(2-methyl-1H-imidazo[4,5-d]thieno[3,2-b]pyridin-1-yl)-2-hydroxycyclohexyl]acetonitrile [41 (second peak)]		> 2000		+++++	

More lines, now with the values ahead:

JAK2/JAK1 (human JAK1 [1])	IC50 (human JAK1 [2]) [nM]	IC50 (human JAK2) [nM]	JAK2 IC50 (nM) (human JAK2)	JAK1 IC50 (nM) (human JAK1 [2])	Molecule
>10	≤ 100	> 2000			C[C@@H](O)c1nc2cnc3ccsc3c2n1C1CCC(O)(CC#N)CC1 (single isomer, unassigned) [24 (first peak)]
	≤ 1000				C[C@@H](O)c1nc2cnc3ccsc3c2n1C1CCC(O)(CC#N)CC1 (single isomer, unassigned) [24 (second peak)]
>2	≤ 1000	> 2000			C[C@@H](O)c1nc2cnc3ccsc3c2n1C1CCC(NCCC#N)CC1 (single isomer, unassigned) [30 (first peak)]
>10	≤ 2000		+++++		C[C@@H](O)c1nc2cnc3ccsc3c2n1C1CCC(NCCC#N)CC1 (single isomer, unassigned) [30 (second peak)]
>5	≤ 100	≤ 1000			N#CCC1CCC(CO)(n2cnc3cnc4ccsc4c32)CC1 (single isomer, unassigned) [72 (second peak), [4-(Hydroxymethyl)-4-(1H-imidazo[4,5-d]thieno[3,2-b]pyridin-1-yl)cyclohexyl]acetonitrile]
>10					C[C@@H](O)c1nc2cnc3ccsc3c2n1[C@H]1CC[C@H](CC#N)CC1 [Example 2, (trans-4-{2-[(1R)-1-Hydroxyethyl]-1H-imidazo[4,5-d]thieno[3,2-b]pyridin-1-yl}cyclohexyl)acetonitrile]
